According to patent US8946203B2, “Benzodioxane inhibitors of leukotriene production” (Boehringer Ingelheim International GmbH, priority 2012, dated 2015):
Where two headings read alike, the source gives them in different places.

Experiments:
[1] = system: synthesis of LTB4 in human whole blood; assay: human whole blood (HWB) assay, LTB4 production inhibition after calcimycin stimulation; format: cell-based; conditions: heparinized human whole blood, calcimycin 20 μM, plasma LTB4 by HTRF
Outline: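 Heparinized human whole blood preincubated with compound 15 min at 37 °C, then stimulated with 20 μM (final) calcimycin for 30 min at 37 °C. Plasma LTB4 measured by antibody-based HTRF; IC50 reported.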

human LTA4 hydrolase = molecular target: T1, human LTA4 hydrolase (Homo sapiens, UniProt P09960); assay: LTA4H Enzyme assay (cleavage of Arg-AMC, fluorescence); format: biochemical
T1 sequence (P09960 1-611): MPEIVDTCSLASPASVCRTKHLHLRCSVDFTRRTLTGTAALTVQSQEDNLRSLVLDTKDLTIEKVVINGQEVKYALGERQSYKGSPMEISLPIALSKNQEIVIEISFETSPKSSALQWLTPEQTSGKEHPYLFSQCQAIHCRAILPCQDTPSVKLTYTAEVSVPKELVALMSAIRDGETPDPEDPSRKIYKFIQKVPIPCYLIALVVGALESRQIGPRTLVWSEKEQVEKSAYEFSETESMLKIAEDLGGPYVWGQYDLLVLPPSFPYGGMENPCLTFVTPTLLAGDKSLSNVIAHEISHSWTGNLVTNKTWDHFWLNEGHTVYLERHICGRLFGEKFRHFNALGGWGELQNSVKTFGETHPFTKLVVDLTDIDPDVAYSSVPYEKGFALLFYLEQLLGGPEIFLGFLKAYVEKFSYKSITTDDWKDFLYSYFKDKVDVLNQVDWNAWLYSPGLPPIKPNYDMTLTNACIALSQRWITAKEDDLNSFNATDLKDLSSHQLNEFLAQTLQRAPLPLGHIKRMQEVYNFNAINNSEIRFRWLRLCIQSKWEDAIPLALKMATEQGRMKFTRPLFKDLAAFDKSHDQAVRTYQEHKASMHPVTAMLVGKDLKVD
Outline: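 Peptidase activity of human LTA4H (1 nM final) on Arg-AMC (50 μM final), with compound, 1 h at room temperature. Buffer: 50 mM Tris-HCl pH 7.5, 100 mM KCl, 0.5% BSA.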

[2] = LTA4H Enzyme 1 nM, Arg-AMC substrate 50 μM, room temperature 1 h, fluorescence, read-out: IC50 values of LTA4H Enzyme assay

IC50 [1] [nM]	IC50 (human LTA4 hydrolase; [2]) [nM]	Structure (SMILES)	IC50 (human LTA4 hydrolase) [nM]
110	0.49	CS(=O)(=O)CC(=O)N1C[C@@H]2C[C@H]1CN2Cc1ccc([C@H]2COc3cccnc3O2)cc1 [Example 256, 1-{(1S,4S)-5-[(S)-4-(2,3-Dihydro-[1,4]dioxino[2,3-b]pyridin-3-yl)-benzyl]-2,5-diaza-bicyclo[2.2.1]hept-2-yl}-2-methanesulfonyl-ethanone]	–
270	0.48	COCC(=O)N1CCCN(Cc2ccc([C@H]3COc4cccnc4O3)cc2)CC1 [Example 257, 1-{4-[(S)-4-(2,3-Dihydro-[1,4]dioxino[2,3-b]pyridin-3-yl)-benzyl]-[1,4]diazepan-1-yl}-2-methoxy-ethanone]	–
100	0.57	CONC(=O)CC1CCN(Cc2ccc([C@H]3COc4cccnc4O3)cc2)CC1 [Example 260, 2-{1-[(S)-4-(2,3-Dihydro-[1,4]dioxino[2,3-b]pyridin-3-yl)-benzyl]-piperidin-4-yl}-N-methoxy-acetamide]	–
260	2.5	CN[C@H](C)C(=O)NC1CCN(Cc2ccc([C@H]3COc4cccnc4O3)cc2)CC1 [Example 261, (R)-N-{1-[(S)-4-(2,3-Dihydro-[1,4]dioxino[2,3-b]pyridin-3-yl)-benzyl]-piperidin-4-yl}-2-methylamino-propionamide]	–
170	0.51	CC(C)(O)C(=O)NCC1CCN(Cc2ccc([C@H]3COc4cccnc4O3)cc2)CC1 [Example 262, N-{1-[(S)-4-(2,3-Dihydro-[1,4]dioxino[2,3-b]pyridin-3-yl)-benzyl]-piperidin-4-ylmethyl}-2-hydroxy-2-methyl-propionamide]	–
130	0.49	CS(=O)(=O)NC[C@@H]1[C@H]2CN(Cc3ccc([C@H]4COc5cccnc5O4)cc3)C[C@@H]12 [Example 263, N-{(1α,5α,6α)-3-[(S)-4-(2,3-Dihydro-[1,4]dioxino[2,3-b]pyridin-3-yl)-benzyl]-3-aza-bicyclo[3.1.0]hex-6-ylmethyl}-methanesulfonamide]	–
150	0.16	O=C(O)C1CCC(C2CCN(Cc3ccc([C@H]4COc5cccnc5O4)cc3)CC2)CC1 (stereo partly drawn) [Example 265, 4-{1-[(S)-4-(2,3-Dihydro-[1,4]dioxino[2,3-b]pyridin-3-yl)-benzyl]-piperidin-4-yl}-cyclohexanecarboxylic acid]	–
66	0.11	NC(=O)N1C[C@@H]2C[C@H]1CN2Cc1ccc([C@H]2COc3cccnc3O2)cc1 [Example 268, (1S,4S)-5-[(S)-4-(2,3-Dihydro-[1,4]dioxino[2,3-b]pyridin-3-yl)-benzyl]-2,5-diaza-bicyclo[2.2.1]heptane-2-carboxylic acid amide]	–
35	0.14	CC(=O)N1CC2CN(Cc3ccc([C@H]4COc5cccnc5O4)cc3)CC2C1 (stereo partly drawn) [Example 270, 1-{5-[(S)-4-(2,3-Dihydro-[1,4]dioxino[2,3-b]pyridin-3-yl)-benzyl]-hexahydro-pyrrolo[3,4-c]pyrrol-2-yl}-ethanone]	–
71	0.09	NC(=O)N1CC2CN(Cc3ccc([C@H]4COc5cccnc5O4)cc3)CC2C1 (stereo partly drawn) [Example 272, 5-[(S)-4-(2,3-Dihydro-[1,4]dioxino[2,3-b]pyridin-3-yl)-benzyl]-hexahydro-pyrrolo[3,4-c]pyrrole-2-carboxylic acid amide]	–
100	0.15	NC(=O)COC1CCN(Cc2ccc([C@H]3COc4cccnc4O3)cc2)CC1 [Example 274, 2-{1-[(S)-4-(2,3-Dihydro-[1,4]dioxino[2,3-b]pyridin-3-yl)-benzyl]-piperidin-4-yloxy}-acetamide]	–
170	0.7	O=S1(=O)CCCN(Cc2ccc([C@H]3COc4cccnc4O3)cc2)CC1 [Example 275, (S)-3-[4-(1,1-Dioxo-1lambda6-[1,4]thiazepan-4-ylmethyl)-phenyl]-2,3-dihydro-[1,4]dioxino[2,3-b]pyridine]	–
240	1.2	CC1(O)CCN(Cc2ccc([C@H]3COc4cccnc4O3)cc2)CC1 [Example 276, 1-[(S)-4-(2,3-Dihydro-[1,4]dioxino[2,3-b]pyridin-3-yl)-benzyl]-4-methyl-piperidin-4-ol]	–
65	0.3	O=C(CO)N1C[C@@H]2C[C@H]1CN2Cc1ccc([C@H]2COc3cccnc3O2)cc1 [Example 277, 1-{(1S,4S)-5-[(S)-4-(2,3-Dihydro-[1,4]dioxino[2,3-b]pyridin-3-yl)-benzyl]-2,5-diaza-bicyclo[2.2.1]hept-2-yl}-2-hydroxy-ethanone]	–
93	0.34	CC(=O)NCC1CCN(Cc2ccc([C@H]3COc4cccnc4O3)cc2)CC1 [Example 279, N-{1-[(S)-4-(2,3-Dihydro-[1,4]dioxino[2,3-b]pyridin-3-yl)-benzyl]-piperidin-4-ylmethyl}-acetamide]	–
230	2.4	CN(Cc1ccc([C@H]2COc3cccnc3O2)cc1)C1CCS(=O)(=O)C1 (stereo partly drawn) [Example 280, [(S)-4-(2,3-Dihydro-[1,4]dioxino[2,3-b]pyridin-3-yl)-benzyl]-(1,1-dioxo-tetrahydro-1lambda-6-thiophen-3-yl)-methyl-amine]	–

Structure (SMILES)	IC50 [1] [nM]	IC50 (human LTA4 hydrolase; [2]) [nM]	IC50 (human LTA4 hydrolase) [nM]
CC(C)(O)CNC(=O)C1CCN(Cc2ccc([C@H]3COc4cccnc4O3)cc2)CC1 [Example 255, 1-[(S)-4-(2,3-Dihydro-[1,4]dioxino[2,3-b]pyridin-3-yl)-benzyl]-piperidine-4-carboxylic acid (2-hydroxy-2-methyl-propyl)-amide]	76	0.17	–
Nc1nc2c(s1)CN(Cc1ccc([C@H]3COc4cccnc4O3)cc1)CC2 [Example 258, 5-[(S)-4-(2,3-Dihydro-[1,4]dioxino[2,3-b]pyridin-3-yl)-benzyl]-4,5,6,7-tetrahydro-thiazolo[5,4-c]pyridin-2-ylamine]	210	0.37	–
NC(=O)N[C@H]1C[C@H]2CC[C@@H](C1)N2Cc1ccc([C@H]2COc3cccnc3O2)cc1 [Example 259, {(endo)-8-[(S)-4-(2,3-Dihydro-[1,4]dioxino[2,3-b]pyridin-3-yl)-benzyl]-8-aza-bicyclo[3.2.1]oct-3-yl}-urea]	790	–	0.3
CC(=O)N1C[C@@H]2CC[C@H]1CN2Cc1ccc([C@H]2COc3cccnc3O2)cc1 [Example 264, 1-{(1S,4S)-5-[(S)-4-(2,3-Dihydro-[1,4]dioxino[2,3-b]pyridin-3-yl)-benzyl]-2,5-diaza-bicyclo[2.2.2]oct-2-yl}-ethanone]	17	0.09	–
O=C(O)C1CCCN(Cc2ccc([C@H]3COc4ccccc4O3)cc2)CC1 (stereo partly drawn) [Example 266, 1-[(S)-4-(2,3-Dihydro-benzo[1,4]dioxin-2-yl)-benzyl]-azepane-4-carboxylic acid]	98	0.22	–
O=C(O)[C@H]1[C@@H]2CN(Cc3ccc([C@H]4COc5ccccc5O4)cc3)C[C@@H]21 [Example 267, [(1α,5α,6α)-3-[(S)-4-(2,3-Dihydro-benzo[1,4]dioxin-2-yl)-benzyl]-3-aza-bicyclo[3.1.0]hexane]-6-carboxylic acid]	73	0.3	–
OC1(c2ccccc2)CCN(Cc2ccc([C@H]3COc4cccnc4O3)cc2)CC1 [Example 269, 1-[(S)-4-(2,3-Dihydro-[1,4]dioxino[2,3-b]pyridin-3-yl)-benzyl]-4-phenyl-piperidin-4-ol]	36	0.2	–
CC(=O)N1CC2CCC(C1)N2Cc1ccc([C@H]2COc3cccnc3O2)cc1 [Example 271, 1-{8-[(S)-4-(2,3-Dihydro-[1,4]dioxino[2,3-b]pyridin-3-yl)-benzyl]-3,8-diaza-bicyclo[3.2.1]oct-3-yl}-ethanone]	110	0.65	–
NC(=O)N[C@@H]1C[C@H]2CC[C@@H](C1)N2Cc1ccc([C@H]2COc3cccnc3O2)cc1 [Example 273, {(exo)-8-[(S)-4-(2,3-Dihydro-[1,4]dioxino[2,3-b]pyridin-3-yl)-benzyl]-8-aza-bicyclo[3.2.1]oct-3-yl}-urea]	110	–	0.16
CC(=O)N[C@H]1C[C@H]2CC[C@@H](C1)N2Cc1ccc([C@H]2COc3cccnc3O2)cc1 [Example 278, N-{(endo)-8-[(S)-4-(2,3-Dihydro-[1,4]dioxino[2,3-b]pyridin-3-yl)-benzyl]-8-aza-bicyclo[3.2.1]oct-3-yl}-acetamide]	73	0.26	–
O=C(CO)N1C[C@@H]2CC[C@H]1CN2Cc1ccc([C@H]2COc3cccnc3O2)cc1 [Example 281, 1-{(1S,4S)-5-[(S)-4-(2,3-Dihydro-[1,4]dioxino[2,3-b]pyridin-3-yl)-benzyl]-2,5-diaza-bicyclo[2.2.2]oct-2-yl}-2-hydroxy-ethanone]	37	0.17	–
NC(=O)N1CC2(CCN(Cc3ccc([C@H]4COc5cccnc5O4)cc3)CC2)c2ccccc21 [Example 282]	61	–	0.17
